Laboratory results from article PMC8251916 (Chemistry (Weinheim an Der Bergstrasse, Germany), 2021).
Like-named read-outs stand apart in the source and are kept apart here.

Key:
[1] = system: FmycT-K+ (c-Myc promoter G-quadruplex, parallel); experiment: FRET melting assay, c-Myc promoter G4; assay type: binding; conditions: 200 nM DNA, PIPER and 3 not reliable (spectral overlap)
Method: (§1) With the library in hand, we began our investigation into G4 stabilization by conducting a Förster resonance energy transfer (FRET) melting assay to assess DNA stabilization using the procedure outlined by De Cian et. al. ^[13] […] The sequences examined (at 200 nM) were the human telomeric G4 in potassium buffer (F21T‐K^+, mixed parallel/hybrid G4) ^[14] and sodium buffer (F21T‐Na^+, antiparallel G4), ^[15] the c‐Myc promoter G‐quadruplex (FmycT‐K^+, parallel G4), ^[16] a polymorphic G4 found in T. brucei (FEBR1T‐K^+, a mixed G4 topology), ^[6b] and a hairpin duplex DNA sequence (F10T‐K^+). Together, these sequences represent targets for therapeutic intervention to treat parasitic infections, ^[6b] or cancer. ^[1b] The topology of each sequence was confirmed independently via circular dichroism (CD, Figure S1). […]
(§2) FRET melting assays were performed to assess ligand affinity for duplex and G-quadruplex
(§3) DNA. Briefly, oligonucleotides of interest were obtained labelled at the 5’ and 3’ ends with FAM (a fluorescence donor) and TAMRA (a fluorescence quencher), respectively. In the folded state, proximity of the donor and quencher result in no observed fluorescence from FAM, since energy is transferred non-radiatively to TAMRA by FRET. As the temperature is raised and the secondary structure denatures, the fluorophores move further apart and the fluorescence signal increases. From the resulting curve, the characteristic melting temperature (Tmax, also referred to as Tm) is defined as the temperature which corresponds to the maxima of the first derivative of the normalised fluorescence signal. The change in melting temperature (ΔTm) induced by the presence of a small molecule ligand provides an indication of the ligand’s ability to stabilise the DNA structure. FRET experiments were performed according to the […]
(§4) procedure reported by De Cian and co-workers[S3] on a Stratagene MX3005P. The method consisted of holding at 25 °C for 5 min, before heating at 1 °C/min to 96 °C in 1 °C increments, […]

[2] = system: Febr1T-K+ (T. brucei G-quadruplex); experiment: FRET melting assay, T. brucei G4; assay type: binding; conditions: 200 nM DNA, PIPER and 3 not reliable (spectral overlap)
Method: as §1, §2, §3, §4

[3] = system: F10T-K+ (hairpin duplex DNA); experiment: FRET melting assay, hairpin duplex DNA; assay type: binding; conditions: 200 nM DNA, PIPER and 3 not reliable (spectral overlap)
Method: as §1, §2, §3, §4

MRC5 non-tumoral cells = experiment: Cytotoxicity, alamarBlue assay, MRC5; assay type: cell-based, human; conditions: 72 h incubation, alamarBlue fluorescence, read-out: absolute EC50 MRC5
Method: (§5) Doxorubicin, suramin and miltefosine were used as control compounds.[ ^6b , ^9 ] After incubation with varied concentrations of the compounds for 72 h, cell viability was measured using either an alamarBlue™ assay (for MRC5, HeLa and T. brucei) or MTT assay (for L. major). Absolute EC50 values and selectivity indexes were then calculated from dose‐response curves (Table 2 and S14). […]
(§6) Cell culture reagents were purchased from Thermo Fisher Scientific (Waltham, MA, USA) and used as-is. The Dulbecco’s Minimal Essential Medium (DMEM) formulation contained either high glucose (4.5 g/L, catalogue number: 10569) or low glucose (1 g/L, catalogue number:
(§7) 10567). RPMI-1640 was provided without sodium pyruvate and with L-glutamine (catalogue number: 11875). Phosphate Buffered Saline (PBS) contained NaCl (9 g/L), KH2PO4 (144 mg/L) and Na2HPO4-7.H2O (795 mg/L, catalogue number: 10010049). TrypLE Express™ was provided with EDTA (458 mg/L) and without Phenol Red (catalogue number: 12604021).
(§8) MRC-5 cells (human lung fibroblasts) were grown in monolayer (37 °C, 5 % CO2 and 100 % humidity) in DMEM medium (1 g/L glucose), supplemented with 10% heat-inactivated Fetal Bovine Serum (hiFBS), 2 mM L-glutamine, 100 U / mL penicillin and […]
(§9) streptomycin. […]
(§10) Cells were cultured according to ATCC recommendations and were used for the experiments while in the exponential growth phase. […]
(§11) Cytotoxicity was measured through the alamarBlue® assay (Thermo Fisher Scientific).[S6,S13] Briefly, 5×10^3 MRC-5 or HeLa cells were seeded in 96-wells plates (100 µL / well) in the presence of increasing concentrations of compound. After 72 hrs of incubation at 37 °C, 20 µL of alamarBlue® solution (110 ng / ml) was added to each well and cells were reincubated for 4 hrs at 37 °C. Then, 50 µL of 3 % SDS were added to each well. The plate was incubated at 37 °C for an extra hour and then analysed by fluorescence with an Infinite F200 plate reader (TECAN Austria, GmbH). The excitation wavelength was fixed at 550 nm and the emission wavelength at 590 nm. The results are expressed as the concentration of compound that reduces

[4] = system: HeLa cervical carcinoma cells; experiment: Cytotoxicity, alamarBlue assay, HeLa; assay type: cell-based, human; conditions: for EC50: Homo sapiens, HeLa, 72 h incubation, alamarBlue fluorescence, read-out: absolute EC50 HeLa
Method: as §5, §6, §7
MRC-5 cells (human lung fibroblasts) were grown in monolayer (37 °C, 5 % CO2 and 100 % humidity) in DMEM medium (1 g/L glucose), supplemented with 10% heat-inactivated Fetal Bovine Serum (hiFBS), 2 mM L-glutamine, 100 U / mL penicillin and […] streptomycin. HeLa (Human cervical carcinoma cell line) cells were maintained at 37 °C and 5 % CO2 in high glucose DMEM (4.5 g / L) supplemented with 10% hiFBS, 100 U / ml penicillin, […] streptomycin, 2 mM L-glutamine and non-essential aminoacids (1X).
as §10, §11

T. brucei = experiment: Trypanocidal activity, alamarBlue assay; assay type: cell-based; conditions: for EC50: Trypanosoma brucei, 72 h incubation, alamarBlue fluorescence, read-out: absolute EC50 T. brucei
Method: as §5, §6, §7, §8, §9, §10
hiFBS. Parasites were split every other day and maintained in their experimental growth phase (below 2 million parasites per mL).
as §11

[5] = 5 μM ligand, 1 mM KCl, 99 mM LiCl, 10 mM Li cacodylate
[6] = 5 μM ligand, 10 mM KCl, 90 mM LiCl, 10 mM Li cacodylate
[7] = selectivity index from EC50 values

**Q.** With CN1CCN(CCCN2C(=O)c3ccc(Oc4ccc(C(C)(C)c5ccc(Oc6ccc7c(c6)C(=O)N(CCCN6CCN(C)CC6)C7=O)cc5)cc4)cc3C2=O)CC1 [Compound 9] as the compound, how does the “ΔTm FmycT-K+” value [1, 5] read?
**A.** −1±2 °C

**Q.** And the “ΔTm FmycT-K+” value ([1]; 10 µM ligand)?
**A.** 10 ± 3 °C

**Q.** And the “ΔTm Febr1T-K+” value [2, 6]?
**A.** −4±1 °C

**Q.** What about the “ΔTm Febr1T-K+” value ([2]; 10 µM ligand) of the same compound?
**A.** -3 ± 1 °C

**Q.** And the “ΔTm F10T-K+” value [3, 6]?
**A.** 0±1 °C

**Q.** What about the EC50 (MRC5 non-tumoral cells; Homo sapiens, MRC5, 72 h) of the same compound?
**A.** 88 ± 10 µM

**Q.** And the EC50 [4]?
**A.** 29 ± 3.5 µM

**Q.** What about the EC50 (T. brucei) of the same compound?
**A.** 33 ± 24 µM

**Q.** Which results are given for CN1CCN(CCCN2C(=O)c3ccc4c5c(ccc(c35)C2=O)C(=O)N(CCCN2CCN(C)CC2)C4=O)CC1 [Compound 1]?
**A.** ΔTm Febr1T-K+ ([2]; 1 µM ligand): 7 ± 3 °C; ΔTm Febr1T-K+ [2, 6]: 9±1 °C; ΔTm Febr1T-K+ ([2]; 10 µM ligand): 11 ± 3 °C; ΔTm F10T-K+ ([3]; 1 µM ligand): 0 ± 1 °C; ΔTm F10T-K+ [3, 6]: 1±1 °C; ΔTm F10T-K+ ([3]; 10 µM ligand): 3 ± 1 °C; EC50 (MRC5 non-tumoral cells; Homo sapiens, MRC5, 72 h): 3.9 ± 0.5 µM; EC50 [4]: 0.5 ± 0.05 µM; EC50 (T. brucei): 0.61 ± 0.3 µM

**Q.** With CN1CCN(CCCNC(=O)c2ccc(Oc3ccc(C(C)(C)c4ccc(Oc5ccc(C(=O)NCCCN6CCN(C)CC6)c(C(=O)NCCCN6CCN(C)CC6)c5)cc4)cc3)cc2C(=O)NCCCN2CCN(C)CC2)CC1 [Compound 11] as the compound, how does the “ΔTm FmycT-K+” value ([1]; 1 µM ligand) read?
**A.** -3 ± 1 °C

**Q.** And the “ΔTm FmycT-K+” value [1, 5]?
**A.** 5±1 °C

**Q.** What about the “ΔTm FmycT-K+” value ([1]; 10 µM ligand) of the same compound?
**A.** 10 ± 2 °C

**Q.** What about the “ΔTm Febr1T-K+” value ([2]; 1 µM ligand) of the same compound?
**A.** 1 ± 1 °C

**Q.** And the “ΔTm Febr1T-K+” value [2, 6]?
**A.** 6±1 °C

**Q.** What about the “ΔTm Febr1T-K+” value ([2]; 10 µM ligand) of the same compound?
**A.** 13 ± 1 °C

**Q.** And the “ΔTm F10T-K+” value [3, 6]?
**A.** 0±1 °C

**Q.** What about the “ΔTm F10T-K+” value ([3]; 10 µM ligand) of the same compound?
**A.** 1 ± 1 °C

**Q.** And the EC50 (MRC5 non-tumoral cells; Homo sapiens, MRC5, 72 h)?
**A.** 59 ± 37 µM

**Q.** And the EC50 [4]?
**A.** 14 ± 1 µM

**Q.** And the EC50 (T. brucei)?
**A.** 2.8 ± 2 µM

**Q.** CN1CCN(CCCN2C(=O)c3ccc4c5ccc6c7c(ccc(c8ccc(c3c48)C2=O)c75)C(=O)N(CCCN2CCN(C)CC2)C6=O)CC1 [Compound 3] was tested. Which “ΔTm FmycT-K+” value ([1]; 1 µM ligand) did it give?
**A.** 24 ± 1 °C

**Q.** And the “ΔTm FmycT-K+” value [1, 5]?
**A.** 37±2 °C

**Q.** And the “ΔTm FmycT-K+” value ([1]; 10 µM ligand)?
**A.** > 40 °C

**Q.** What about the “ΔTm Febr1T-K+” value ([2]; 1 µM ligand) of the same compound?
**A.** 2 ± 1 °C

**Q.** What about the “ΔTm Febr1T-K+” value [2, 6] of the same compound?
**A.** 33±1 °C

**Q.** What about the “ΔTm Febr1T-K+” value ([2]; 10 µM ligand) of the same compound?
**A.** 39 ± 1 °C

**Q.** What about the “ΔTm F10T-K+” value ([3]; 1 µM ligand) of the same compound?
**A.** 1 ± 1 °C

**Q.** And the “ΔTm F10T-K+” value [3, 6]?
**A.** 6±2 °C

**Q.** What about the “ΔTm F10T-K+” value ([3]; 10 µM ligand) of the same compound?
**A.** 13 ± 2 °C

**Q.** What about the EC50 (MRC5 non-tumoral cells) of the same compound?
**A.** 2.1 ± 0.6 µM

**Q.** What about the EC50 (MRC5 non-tumoral cells; Homo sapiens, MRC5, 72 h) of the same compound?
**A.** 2 µM

**Q.** And the EC50 [4]?
**A.** 53 ± 6.2 µM

**Q.** What about the “SI (MRC5/HeLa)” value [4, 7] of the same compound?
**A.** 0.04

**Q.** And the EC50 (T. brucei)?
**A.** 0.027 ± 0.01 µM

**Q.** And the “SI (MRC5/T. brucei)” value (T. brucei; [7])?
**A.** 78
